Results: patent US9346767B2, “Substituted pyrazines and a process for producing the same” (JNC CORPORATION, priority 2011, dated 2016)

Experiments:
Renilla luciferase-547 = biological target: T1, Renilla luciferase-547 (Renilla reniformis, UniProt P27652, A123S/A143M/A55T/C124A/D154A/D162E/E155G/F262W/I163V/K136R/M185V/M253L/S130A/S287L); assay: Measurement of emission spectrum with Renilla luciferase-547; assay type: biochemical; settings: Renilla luciferase-547, 5 μg substrate, 50 mM Tris-HCl (pH 7.6)-10 mM EDTA, 22-25° C.
T1 construct: His6 with pCold-II leader (MNHKVHHHHHHMELG...) (N); made in house; host or cells: Escherichia coli BL21
Procedure: (§1) The luminescence reaction was initiated by adding luciferase to 1 mL of 50 mM Tris-HCl (pH 7.6)-10 mM EDTA containing 5 μg (1 μg/μL) of substrate coelenterazine or ν-coelenterazine dissolved in ethanol. The protein amounts of luciferases used were Renilla luciferase: 1.5 μg and Renilla luciferase-547: 7.2 μg in the case of coelenterazine as substrate. On the other hand, the protein amounts in ν-coelenterazine as substrate were Renilla luciferase: 14.7 μg and Renilla luciferase-547: 35.8 μg. Luminescence spectra were measured in a quartz cell with a 10 mm optical path under the conditions of band width: 20 nm, sensitivity: medium, scan speed: 2000 nm/min and 22-25° C., using a fluorescence spectrophotometer FP-6500 (manufactured by JASCO) with the excitation light source turned off.

Renilla luciferase [1] = biological target: T2, Renilla luciferase (Renilla reniformis, UniProt P27652); assay: Measurement of luminescence activity with Renilla luciferase; assay type: biochemical; parameters: His tag (from vector pCold-II; inferred from the nickel-chelate purification and the vector) (N); made in house; host or cells: Escherichia coli BL21; settings: Renilla luciferase 2.94 ng, 0.05 μg substrate, 30 mM Tris-HCl (pH 7.6)-10 mM EDTA; relative to coelenterazine
T2 sequence (P27652 1-311): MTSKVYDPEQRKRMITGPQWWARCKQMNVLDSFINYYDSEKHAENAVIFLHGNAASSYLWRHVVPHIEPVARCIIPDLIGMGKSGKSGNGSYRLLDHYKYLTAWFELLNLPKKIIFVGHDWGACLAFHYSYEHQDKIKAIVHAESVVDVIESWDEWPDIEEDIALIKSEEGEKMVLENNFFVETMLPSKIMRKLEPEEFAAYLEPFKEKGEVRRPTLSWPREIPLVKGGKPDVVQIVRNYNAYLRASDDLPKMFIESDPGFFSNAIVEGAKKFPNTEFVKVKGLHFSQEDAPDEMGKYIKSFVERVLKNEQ
Procedure: After Renilla luciferase (2.94 ng) or Renilla luciferase-547 (14.3 ng) was dispensed into a 96-well microplate (manufactured by Nunc) in an amount of 10 μL/well, 0.1 mL of 30 mM Tris-HCl (pH 7.6)-10 mM EDTA containing 0.05 μg of coelenterazine or ν-coelenterazine was injected into the wells thereby to initiate the luminescence reaction, and the luminescence intensity was measured using a luminescence plate reader Centro LB960 (manufactured by Berthold). The luminescence intensity was measured for 60 seconds 3 times in 0.1 second intervals, and the maximum luminescence intensity (Imax) and the mean (rlu) from luminescence integrated for 60 seconds were expressed in terms of relative activity (%) (TABLE 2).

Renilla luciferase [2] = biological target: T2, Renilla luciferase; assay: Measurement of emission spectrum with Renilla luciferase; assay type: biochemical; parameters: His tag (from vector pCold-II; inferred from the nickel-chelate purification and the vector) (N); made in house; host or cells: Escherichia coli BL21; settings: for Emission Maximum λmax / Emission spectrum half bandwidth: Renilla luciferase, 5 μg substrate, 50 mM Tris-HCl (pH 7.6)-10 mM EDTA, 22-25° C.; for shift of maximum emission wavelength (in words): summary of EXAMPLES, Renilla luciferase and Renilla luciferase-547
Procedure: as §1

Renilla luciferase [3] = biological target: T2, Renilla luciferase; settings: substrate for Renilla luciferase, cited from earlier work

T1 sequence (P27652 other isoform, or with tags, fused parts or gaps with the stated changes): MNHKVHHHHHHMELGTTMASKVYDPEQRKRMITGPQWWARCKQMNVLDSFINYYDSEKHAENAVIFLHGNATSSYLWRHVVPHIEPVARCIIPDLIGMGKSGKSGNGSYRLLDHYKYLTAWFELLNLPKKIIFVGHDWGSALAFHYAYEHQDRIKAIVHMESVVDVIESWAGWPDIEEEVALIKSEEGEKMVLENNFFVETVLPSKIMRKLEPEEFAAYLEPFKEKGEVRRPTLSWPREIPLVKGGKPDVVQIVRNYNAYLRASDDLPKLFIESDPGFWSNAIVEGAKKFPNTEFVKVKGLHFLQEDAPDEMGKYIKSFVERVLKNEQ

| SMILES | Emission Maximum λmax (Renilla luciferase-547) [nm] | Emission spectrum half bandwidth (Renilla luciferase-547) [nm] | Luminescence integrated for 60 seconds (Int.), relative activity (Renilla luciferase [1]) | Maximum Luminescence Intensity Imax, relative activity (Renilla luciferase [1]) | Emission Maximum λmax (Renilla luciferase [2]) [nm] | Emission spectrum half bandwidth (Renilla luciferase [2]) [nm] | shift of maximum emission wavelength (in words) (Renilla luciferase [2]) | part of emission spectrum distribution reaching the near-infrared region (>700 nm) (Renilla luciferase [3]) [%] | shift of maximum emission wavelength toward the longer wavelength side (Renilla luciferase [3]; from 475 nm) | maximum emission wavelength (Renilla luciferase [3]; green emission) [nm] |
| --- | --- | --- | --- | --- | --- | --- | --- | --- | --- | --- |
| O=c1c(Cc2ccc(C(F)(F)F)cc2)nc2c(Cc3ccccc3)[nH]c3c4ccc(O)cc4ccc3n1-2 [cf3-v-Coelenterazine, cf3-ν-coelenterazine] | 599.0 | 132 | 12.3% | 18.9% | 525.5 | 121 | shifted toward a longer wavelength side even relative to ν-coelenterazine |  |  |  |
| O=c1c(Cc2ccc(O)cc2)nc2c(Cc3ccccc3)[nH]c3c4ccc(O)cc4ccc3n1-2 [v-Coelenterazine, ν-Coelenterazine] | 593.0 | 130 | 47.3% | 71.8% | 519.0 | 105 | shifted toward a longer wavelength side relative to coelenterazine | ~5 | about 40 nm | 512 |
| O=c1c(Cc2ccc(O)cc2)nc2c(Cc3ccccc3)[nH]c(-c3ccc(O)cc3)cn1-2 [Coelenterazine, coelenterazine, reference compound] | 547.0 | 124 | 100 (100) % | 100 (100) % | 485.0 | 95 |  |  |  |  |
